{
  "source": "patent US8410045B2",
  "about": "“Camptothecin-peptide conjugates and pharmaceutical compositions containing the same” (Drais Pharmaceuticals, Inc., priority 2006, dated 2013)",
  "key": {"NCI-H460 lung carcinoma": {"tested_on": "NCI-H460 lung carcinoma", "assay": "Antitumor efficacy in NCI-H460 lung carcinoma model in nude mice", "details": "Table 9, 25 μmol/kg"}, "[1]": {"assay": "In vitro cytotoxicity (WST-1 cell viability)", "format": "cell-based, human", "details": "1 h exposure + 48 h post-incubation; read-out: In vitro cytotoxicity IC50 (μM) NCI-H460"}},
  "note": "Where a name gives a salt, the structure may show the parent alone.",
  "data": [
    {"molecule": "CCc1c2c(nc3ccc(OC(=O)[C@H]4CC[C@H](CNC(=O)C5CCC(CN6C(=O)CC(SC[C@H](N)C(=O)N[C@H](C(=O)N[C@@H](CCCCN)C(=O)N[C@@H](CCCNC(=N)N)C(=O)NCC(=O)N[C@@H](CC(C)C)C(=O)N[C@@H](CCCCN)C(=O)N[C@@H](CC(C)C)C(=O)N[C@@H](CCCNC(=N)N)C(=O)N[C@@H](Cc7c[nH]cn7)C(=O)N[C@H](C(=O)N[C@@H](CCCNC(=N)N)C(=O)N7CCC[C@H]7C(=O)N[C@@H](CCCNC(=N)N)C(=O)N[C@H](C(=O)N[C@H](C(=O)N[C@@H](CCCNC(=N)N)C(=O)N[C@@H](CCSC)C(=O)N[C@@H](CC(=O)O)C(=O)N[C@H](C(=O)O)C(C)C)[C@@H](C)O)C(C)C)C(C)C)C(C)C)C6=O)CC5)CC4)cc13)-c1cc3c(c(=O)n1C2)COC(=O)[C@]3(O)CC", "note": "(single isomer, unassigned) [DPV1047-BCH-SN38•HCl]", "values": [
      {"measurement": "In vivo efficacy Optimal T/C %", "setting": "NCI-H460 lung carcinoma", "result": 22.9, "unit": "%"},
      {"measurement": "In vivo efficacy TGI %", "setting": "NCI-H460 lung carcinoma", "result": 77.1, "unit": "%"},
      {"measurement": "In vivo efficacy Optimal T/C %", "setting": "NCI-H460 lung carcinoma; listed as DPV1047-BCH-SN38.HCl", "result": 18.4, "unit": "%"},
      {"measurement": "IC50", "setting": "[1]", "result": 173, "unit": "µM"}
    ]}
  ]
}
